Test results from patent publication US9018258B2, “Substituted 1-benzylcycloalkylcarboxylic acids and the use thereof” (Bayer Intellectual Property GmbH, priority 2010, dated 2015).

target: T1, sGC (Rattus norvegicus, UniProt P20595); assay: Action at a recombinant guanylate cyclase reporter cell line (CHO reporter cell); assay type: cell-based; conditions: CHO reporter cell in vitro
T1 construct: expressed in transfected cells; host or cells: CHO reporter cell
Experimental: The cellular action of the compounds according to the invention is determined at a recombinant guanylate cyclase reporter cell line, as described in F. Wunder et al., Anal. Biochem. 339, 104-112 (2005).

T1 sequence (P19686 whole entry partner): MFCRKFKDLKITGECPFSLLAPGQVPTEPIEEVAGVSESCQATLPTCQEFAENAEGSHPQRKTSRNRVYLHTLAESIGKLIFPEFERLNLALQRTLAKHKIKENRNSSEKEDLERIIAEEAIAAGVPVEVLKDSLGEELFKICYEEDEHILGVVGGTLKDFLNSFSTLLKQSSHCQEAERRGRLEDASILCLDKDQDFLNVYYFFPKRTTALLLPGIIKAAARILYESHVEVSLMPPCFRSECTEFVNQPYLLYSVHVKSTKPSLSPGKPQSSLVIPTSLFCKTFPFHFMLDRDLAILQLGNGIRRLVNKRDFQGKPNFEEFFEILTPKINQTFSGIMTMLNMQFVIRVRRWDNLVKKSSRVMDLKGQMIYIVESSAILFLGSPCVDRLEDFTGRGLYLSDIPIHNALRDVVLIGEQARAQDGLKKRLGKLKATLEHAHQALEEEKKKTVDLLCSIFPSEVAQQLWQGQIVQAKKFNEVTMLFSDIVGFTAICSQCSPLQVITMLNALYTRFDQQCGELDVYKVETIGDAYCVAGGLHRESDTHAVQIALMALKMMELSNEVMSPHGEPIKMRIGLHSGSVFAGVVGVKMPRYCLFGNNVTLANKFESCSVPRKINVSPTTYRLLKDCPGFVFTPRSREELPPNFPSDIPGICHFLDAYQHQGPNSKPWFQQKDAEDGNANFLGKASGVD
T1 sequence (P20595 whole entry): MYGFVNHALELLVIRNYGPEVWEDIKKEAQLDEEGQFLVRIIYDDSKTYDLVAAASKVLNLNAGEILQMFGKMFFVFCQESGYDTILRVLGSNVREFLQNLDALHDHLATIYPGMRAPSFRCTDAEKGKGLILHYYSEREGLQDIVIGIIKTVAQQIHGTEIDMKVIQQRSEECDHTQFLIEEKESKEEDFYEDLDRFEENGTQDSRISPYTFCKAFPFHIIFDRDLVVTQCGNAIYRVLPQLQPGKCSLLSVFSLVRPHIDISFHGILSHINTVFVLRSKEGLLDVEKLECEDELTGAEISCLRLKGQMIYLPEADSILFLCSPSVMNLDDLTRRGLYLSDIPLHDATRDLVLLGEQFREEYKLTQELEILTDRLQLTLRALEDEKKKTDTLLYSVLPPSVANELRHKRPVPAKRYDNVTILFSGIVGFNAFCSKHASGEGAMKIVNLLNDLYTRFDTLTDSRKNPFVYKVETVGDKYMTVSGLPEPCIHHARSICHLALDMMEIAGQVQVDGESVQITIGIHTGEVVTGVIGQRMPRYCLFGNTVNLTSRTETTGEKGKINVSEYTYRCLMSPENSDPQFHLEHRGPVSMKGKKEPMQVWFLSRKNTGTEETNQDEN

| MEC (minimum effective concentration), sGC-activating activity in the CHO reporter cell [nM] | Structure (SMILES) |
| --- | --- |
| 30 | O=C(Nc1cccc(CC2(C(=O)O)CC2)c1F)C(c1ccc(Cl)cc1)C1CCCC1 (racemic) [Example 6, (+/−)-1-(3-{[(4-chlorophenyl)(cyclopentyl)acetyl]-amino}-2-fluorobenzyl)cyclopropanecarboxylic acid] |
| 3 | O=C(Nc1cc(CC2(C(=O)O)CC2)ccc1F)C(c1ccc(Cl)cc1)C1CCCC1 (racemic) [Example 8, (+/−)-1-(3-{[(4-chlorophenyl)(cyclopentyl)acetyl]-amino}-4-fluorobenzyl)cyclopropanecarboxylic acid] |
| 1 | CCc1ccc(C(C(=O)Nc2cc(CC3(C(=O)O)CC3)ccc2F)C(C)C(F)(F)F)cc1 (racemic) [Example 9, (+/−)-1-(3-{[2-(4-ethylphenyl)-4,4,4-trifluoro-3-methylbutanoyl]amino}-4-fluorobenzyl)-cyclopropanecarboxylic acid] |
| 1 | O=C(Nc1cc(CC2(C(=O)O)CC2)ccc1F)C(c1ccc(Cl)cc1F)C1CCCC1 (racemic) [Example 11, (+/−)-1-(3-{[(4-chloro-2-fluorophenyl)(cyclo-pentyl)acetyl]amino}-4-fluorobenzyl)-cyclopropanecarboxylic acid] |
| 100 | O=C(Nc1cccc(CC2(C(=O)O)CC2)c1)C(c1ccc(C=C(F)F)cc1)C1CCCC1 (racemic) [Example 12, (+/−)-1-[3-({cyclopentyl[4-(2,2-difluorovinyl)-phenyl]acetyl}amino)benzyl]cyclopropane-carboxylic acid] |
| 30 | C=Cc1ccc(C(C(=O)Nc2cccc(CC3(C(=O)O)CC3)c2)C2CCCC2)cc1 (racemic) [Example 13, (+/−)-1-(3-{[cyclopentyl(4-vinylphenyl)acetyl]-amino}benzyl)cyclopropanecarboxylic acid] |
| 100 | O=C(Nc1cccc(CC2(C(=O)O)CC2)c1)C(c1ccc(CC(F)F)cc1)C1CCCC1 (racemic) [Example 14, (+/−)-1-[3-({cyclopentyl[4-(2,2-difluoroethyl)-phenyl]acetyl}amino)benzyl]cyclopropane-carboxylic acid] |
| 30 | N#Cc1ccc(C(C(=O)Nc2cc(CC3(C(=O)O)CC3)ccc2F)C2CCCC2)cc1 (racemic) [Example 15, (+/−)-1-(3-{[(4-cyanophenyl)(cyclopentyl)acetyl]-amino}-4-fluorobenzyl)cyclopropanecarboxylic acid] |
| 10 | O=C(Nc1cc(CC2(C(=O)O)CC2)ccc1F)C(c1ccc([N+](=O)[O-])cc1)C1CCCC1 (racemic) [Example 16, (+/−)-1-(3-{[(4-nitrophenyl)(cyclopentyl)acetyl]-amino}-4-fluorobenzyl)cyclopropanecarboxylic acid] |
| 10 | O=C(Nc1cccc(CC2(C(=O)O)CC2)c1)C(c1ccc(C(F)(F)F)cc1)C1CCCC1 (racemic) [Example 53, (+/−)-1-[3-({Cyclopentyl[4-(trifluoromethyl)phenyl]acetyl}amino)benzyl]cyclopropanecarboxylic acid] |
| 5.3 | O=C(Nc1cc(CC2(C(=O)O)CC2)ccc1F)C(c1ccc(Cl)cc1)C1CCCC1(F)F (racemic) [Example 65, 1-(3-{[(4-Chlorophenyl)(2,2-difluorocyclopentyl)acetyl]amino}-4-fluorobenzyl)cyclopropane-carboxylic acid] |
| 3 | O=C(Nc1cc(CC2(C(=O)O)CC2)ccc1F)C(c1ccc(Cl)cc1)C1CCC(F)(F)C1 (single isomer, unassigned) [Example 78, 1-(3-{[(4-Chlorophenyl)(3,3-difluorocyclopentyl)acetyl]amino}-4-fluorobenzyl)cyclopropanecarboxylic acid] |
| 3 | CC(C(C(=O)Nc1cccc(CC2(C(=O)O)CC2)c1)c1ccc(C(F)(F)F)cc1)C(F)(F)F (single isomer, unassigned) [Example 80, 1-[3-({4,4,4-Trifluoro-3-methyl-2-[4-(trifluoromethyl)phenyl]butanoyl}amino)benzyl]cyclo-propanecarboxylic acid] |
| 20 | CC(C(C(=O)Nc1cccc(CC2(C(=O)O)CC2)c1)c1ccc(Cl)cc1)C(F)(F)F (single isomer, unassigned) [Example 84, 1-(3-{[2-(4-Chlorophenyl)-4,4,4-trifluoro-3-methylbutanoyl]amino}benzyl)cyclopropane-carboxylic acid] |
| 60 | C[C@H]([C@H](C(=O)Nc1cc(C(O)C2(C(=O)O)CC2)ccc1Cl)c1ccc(Cl)cc1)C(F)(F)F (single isomer, unassigned) [Example 103] |
| 20 | C[C@H]([C@H](C(=O)Nc1cc(C(O)C2(C(=O)O)CC2)ccc1Cl)c1ccc(Cl)cc1)C(F)(F)F (single isomer, unassigned) [Example 104] |
| 0.3 | C[C@H]([C@H](C(=O)Nc1cc(C(OC2CC2)C2(C(=O)O)CC2)ccc1Cl)c1ccc(Cl)cc1)C(F)(F)F (single isomer, unassigned) [Example 113] |
| 3 | C[C@H]([C@H](C(=O)Nc1cc(C(OC2CC2)C2(C(=O)O)CC2)ccc1Cl)c1ccc(Cl)cc1)C(F)(F)F (single isomer, unassigned) [Example 114] |
| 3 | O=C(Nc1cc(CC2(C(=O)O)CC2)ccc1F)[C@H](c1ccc(Cl)cc1)C1CCCC1(F)F (single isomer, unassigned; (+)) [Example 67] |
| 10 | C[C@H]([C@H](C(=O)Nc1cc(CC2(C(=O)O)CC2)ccc1F)c1ccc(F)cc1)C(F)(F)F [Example 22, (+)-1-(4-fluoro-3-{[(2S,3R)-4,4,4-trifluoro-2-(4-fluorophenyl)-3-methylbutanoyl]amino}-benzyl)cyclopropanecarboxylic acid] |
| 0.3 | CCc1ccc([C@@H](C(=O)Nc2cc(CC3(C(=O)O)CC3)ccc2F)[C@@H](C)C(F)(F)F)cc1 [Example 25, (+)-1-(3-{[(2S,3R)-2-(4-ethylphenyl)-4,4,4-tri-fluoro-3-methylbutanoyl]amino}-4-fluorobenzyl)-cyclopropanecarboxylic acid] |
| 100 | C[C@H]([C@H](C(=O)Nc1cccc(CC2(C(=O)O)CC2)c1Cl)c1ccc(Cl)cc1)C(F)(F)F [Example 27, (+)-1-(2-chloro-3-{[(2S,3R)-2-(4-chlorophenyl)-4,4,4-trifluoro-3-methylbutanoyl]amino}benzyl)-cyclopropanecarboxylic acid] |
| 3 | C[C@H]([C@H](C(=O)Nc1ccc(Cl)c(CC2(C(=O)O)CC2)c1F)c1ccc(Cl)cc1)C(F)(F)F [Example 28, 1-(6-chloro-3-{[(2S,3R)-2-(4-chlorophenyl)-4,4,4-trifluoro-3-methylbutanoyl]amino}-2-fluorobenzyl)cyclopropanecarboxylic acid] |
| 10 | O=C(Nc1cc(CC2(C(=O)O)CC2)ccc1F)C(c1ccc(Cl)cc1)C1CCC(F)(F)C1 (stereo not drawn) [Example 34, 1-(3-{[(4-chlorophenyl)(3,3-difluorocyclopentyl)-acetyl]amino}-4-fluorobenzyl)cyclopropane-carboxylic acid] |
| 10 | O=C(Nc1cc(CC2(C(=O)O)CC2)ccc1Cl)C(c1ccc(Cl)cc1)C1CCC(F)(F)C1 (stereo not drawn) [Example 35, 1-(3-{[(4-chlorophenyl)(3,3-difluorocyclopentyl)-acetyl]amino}-4-chlorobenzyl)cyclopropane-carboxylic acid] |
| 0.1 | CC(C)c1ccc([C@@H](C(=O)Nc2cc(CC3(C(=O)O)CC3)ccc2F)[C@@H](C)C(F)(F)F)cc1 [Example 37, 1-(4-fluoro-3-{[(2S,3R)-4,4,4-trifluoro-2-(4-isopropylphenyl)-3-methylbutanoyl]amino}-benzyl)cyclopropanecarboxylic acid] |
| 0.3 | C[C@H]([C@H](C(=O)Nc1cc(CC2(C(=O)O)CC2)ccc1F)c1ccc(C(C)(C)C)cc1)C(F)(F)F [Example 39, 1-(3-{[(2S,3R)-2-(4-tert-butylphenyl)-4,4,4-trifluoro-3-methylbutanoyl]amino}-4-fluorobenzyl)cyclopropanecarboxylic acid] |
| 1 | C[C@H]([C@H](C(=O)Nc1cc(CC2(C(=O)O)CC2)ccc1Cl)c1ccc(C(F)(F)F)cc1)C(F)(F)F [Example 41, 1-[4-chloro-3-({(2S,3R)-4,4,4-trifluoro-3-methyl-2-[4-(trifluoromethyl)phenyl]butanoyl}amino)-benzyl]cyclopropanecarboxylic acid] |
| 1 | CC(C(C(=O)Nc1cc(CC2(C(=O)O)CC2)ccc1Cl)c1ccc(CC(F)(F)F)cc1)C(F)(F)F (stereo not drawn) [Example 46, 1-[4-chloro-3-({4,4,4-trifluoro-3-methyl-2-[4-(2,2,2-trifluoroethyl)phenyl]butanoyl}amino)-benzyl]cyclopropanecarboxylic acid] |
| 30 | Cc1cc(C(C(=O)Nc2cccc(CC3(C(=O)O)CC3)c2)C(C)C(F)(F)F)ccc1Cl (stereo not drawn) [Example 49, 1-(3-{[2-(4-chloro-3-methylphenyl)-4,4,4-trifluoro-3-methylbutanoyl]amino}benzyl)-cyclopropanecarboxylic acid] |
